Data: patent publication US20230295118A1 (EnhancedBio Inc., priority 2022, published 2023)
pIC50: −log10 of the molar value.

Assays:
Format in all cases: cell-based
[1] = test system: mantle cell lymphoma cell (Mino or JeKo-1); assay: Antiproliferative effect, MTS cell viability assay; conditions: 72 h, mantle cell lymphoma cell (Mino or JeKo-1), MTS assay, read-out: IC50 (anti-proliferation)
Summary of the method: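 MTS read-out (formazan absorbance at 490 nm) after 72 h exposure of Mino cells to 0–1 μM compound (0.0001, 0.001, 0.01, 0.1, 1 μM). Palbociclib and abemaciclib served as positive controls.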

CDK4 = target: T1, CDK4 (Homo sapiens, UniProt P11802); assay: CDK4 degradation (DC50, Dmax)
T1 construct: endogenous in cells

CDK6 = target: T2, CDK6 (Homo sapiens, UniProt Q00534); assay: CDK6 degradation (DC50, Dmax)
T2 construct: endogenous in cells
T2 sequence (Q00534 whole entry): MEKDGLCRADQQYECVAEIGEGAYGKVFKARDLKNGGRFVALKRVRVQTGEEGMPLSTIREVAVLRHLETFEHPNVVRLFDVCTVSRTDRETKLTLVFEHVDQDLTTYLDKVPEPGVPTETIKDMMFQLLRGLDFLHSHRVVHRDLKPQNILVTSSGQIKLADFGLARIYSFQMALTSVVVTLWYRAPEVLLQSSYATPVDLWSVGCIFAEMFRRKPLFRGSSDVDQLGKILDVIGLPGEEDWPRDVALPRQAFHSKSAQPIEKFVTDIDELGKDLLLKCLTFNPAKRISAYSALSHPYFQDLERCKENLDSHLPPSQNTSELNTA

T1 sequence (P11802 whole entry): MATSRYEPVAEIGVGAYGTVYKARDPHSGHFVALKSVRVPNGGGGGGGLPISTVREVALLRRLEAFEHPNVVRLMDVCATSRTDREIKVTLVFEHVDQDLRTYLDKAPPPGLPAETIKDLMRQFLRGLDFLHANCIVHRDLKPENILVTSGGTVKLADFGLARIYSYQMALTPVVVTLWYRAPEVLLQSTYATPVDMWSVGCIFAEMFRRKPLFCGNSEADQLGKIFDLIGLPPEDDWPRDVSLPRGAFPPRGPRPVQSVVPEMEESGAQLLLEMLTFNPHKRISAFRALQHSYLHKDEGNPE

Compound | pIC50 [1] | DC50 (CDK4) | Dmax (CDK4) | DC50 (CDK6) | Dmax (CDK6)
CC(=O)c1c(C)c2cnc(Nc3ccc(N4CCN(C5CCN(C(=O)N6CCC(N7CCN(c8ccc9c(c8)C(=O)N(C8CCC(=O)NC8=O)C9=O)CC7)CC6)CC5)CC4)cn3)nc2n(C2CCCC2)c1=O (stereo not shown) [Compound 88, 5-(4-(1-(4-(4-(6-((6-acetyl-8-cyclopentyl-5-methyl-7-oxo-7,8-dihydropyrido[2,3-d]pyrimidin-2-yl)amino)pyridin-3-yl)piperazin-1-yl)piperidine-1-carbonyl)piperidin-4-yl)piperazin-1-yl)-2-(2,6-dioxopiperidin-3-yl) isoindoline-1,3-dione] | < 6.70 | > 200 nM | > 60% | > 200 nM | > 50%
Cc1nc2c(F)cc(-c3nc(Nc4ccc(CN5CCN(c6cccc7c6C(=O)N(C6CCC(=O)NC6=O)C7=O)CC5)cn4)ncc3F)cc2n1C(C)C (stereo not shown) [Compound 101, 2-(2,6-dioxopiperidin-3-yl)-4-(4-((6-((5-fluoro-4-(4-fluoro-1-isopropyl-2-methyl-1H-benzo[d]imidazol-6-yl)pyrimidin-2-yl)amino)pyridin-3-yl)methyl)piperazin-1-yl)isoindoline-1,3-dione] | 6.70 to 7.30 | 50 to 200 nM | > 60% | 50 to 200 nM | > 80%
CC(=O)c1c(C)c2cnc(Nc3ccc(N4CCN(CC5CCN(C(=O)N6CCC(CCN7CCN(c8ccc9c(c8)C(=O)N(C8CCC(=O)NC8=O)C9=O)CC7)CC6)CC5)CC4)cn3)nc2n(C2CCCC2)c1=O (stereo not shown) [Compound 83, 5-(4-(2-(1-(4-((4-(6-((6-acetyl-8-cyclopentyl-5-methyl-7-oxo-7,8-dihydropyrido[2,3-d]pyrimidin-2-yl)amino)pyridin-3-yl)piperazin-1-yl)methyl)piperidine-1-carbonyl)piperidin-4-yl)ethyl)piperazin-1-yl)-2-(2,6-dioxopiperidin-3-yl) isoindoline-1,3-dione] | < 6.70 | > 200 nM | > 50% | > 200 nM | > 50%
Cc1nc2c(F)cc(-c3nc(Nc4ccc(CC5CCN(C6CN(c7ccc8c(c7)C(=O)N(C7CCC(=O)NC7=O)C8=O)C6)CC5)cn4)ncc3F)cc2n1C(C)C (stereo not shown) [Compound 148, 2-(2,6-dioxopiperidin-3-yl)-5-(3-(4-((6-((5-fluoro-4-(4-fluoro-1-isopropyl-2-methyl-1H-benzo[d]imidazol-6-yl)pyrimidin-2-yl)amino)pyridin-3-yl)methyl)piperidin-1-yl)azetidin-1-yl)isoindoline-1,3-dione] | 6.70 to 7.30 | < 50 nM | > 60% | 50 to 200 nM | > 60%
CC(=O)c1c(C)c2cnc(Nc3ccc(C4CCN(CC5CN(c6ccc7c(c6)C(=O)N(C6CCC(=O)NC6=O)C7=O)C5)CC4)cn3)nc2n(C2CCCC2)c1=O (stereo not shown) [Compound 125, 5-(3-((4-(6-((6-acetyl-8-cyclopentyl-5-methyl-7-oxo-7,8-dihydropyrido[2,3-d]pyrimidin-2-yl)amino)pyridin-3-yl)piperidin-1-yl)methyl)azetidin-1-yl)-2-(2,6-dioxopiperidin-3-yl)isoindoline-1,3-dione] | > 7.30 | < 50 nM | > 80% | < 50 nM | > 80%
CC(=O)c1c(C)c2cnc(Nc3ccc(N4CCN(C(=O)N5CCN(CC6CCN(c7ccc8c(c7)C(=O)N(C7CCC(=O)NC7=O)C8=O)CC6)CC5)CC4)cn3)nc2n(C2CCCC2)c1=O (stereo not shown) [Compound 15, 5-(4-((4-(4-(6-((6-acetyl-8-cyclopentyl-5-methyl-7-oxo-7,8-dihydropyrido[2,3-d]pyrimidin-2-yl)amino)pyridin-3-yl)piperazine-1-carbonyl)piperazin-1-yl)methyl)piperidin-1-yl)-2-(2,6-dioxopiperidin-3-yl) isoindoline-1,3-dione] | < 6.70 | > 200 nM | > 50% | > 200 nM | > 50%
Cc1nc2c(F)cc(-c3nc(Nc4ccc(CC5CCN(C6CCN(c7ccc(NC8CCC(=O)NC8=O)cc7)CC6)CC5)cn4)ncc3F)cc2n1C(C)C (stereo not shown) [Compound 172, 3-((4-(4-((6-((5-fluoro-4-(4-fluoro-1-isopropyl-2-methyl-1H-benzo[d]imidazol-6-yl)pyrimidin-2-yl)amino)pyridin-3-yl)methyl)-[1,4′-bipiperidin]-1′-yl)phenyl)amino) piperidine-2,6-dione] | > 7.30 | 50 to 200 nM | > 80% | 50 to 200 nM | > 80%
CC(=O)c1c(C)c2cnc(Nc3ccc(N4CCN(CCCN(C)c5ccc6c(c5)C(=O)N(C5CCC(=O)NC5=O)C6=O)CC4)cn3)nc2n(C2CCCC2)c1=O (stereo not shown) [Compound 57, 5-((3-(4-(6-((6-acetyl-8-cyclopentyl-5-methyl-7-oxo-7,8-dihydropyrido[2,3-d]pyrimidin-2-yl)amino)pyridin-3-yl)piperazin-1-yl)propyl)(methyl)amino)-2-(2,6-dioxopiperidin-3-yl)isoindoline-1,3-dione] | 6.70 to 7.30 | 50 to 200 nM | > 60% | 50 to 200 nM | > 60%
Cc1nc2c(F)cc(-c3nc(Nc4ccc(CC5CCN(CC6CN(c7ccc(NC8CCC(=O)NC8=O)cc7)C6)CC5)cn4)ncc3F)cc2n1C(C)C (stereo not shown) [Compound 142, 3-((4-(3-((4-((6-((5-fluoro-4-(4-fluoro-1-isopropyl-2-methyl-1H-benzo[d]imidazol-6-yl)pyrimidin-2-yl)amino)pyridin-3-yl)methyl)piperidin-1-yl)methyl)azetidin-1-yl)phenyl)amino) piperidine-2,6-dione] | > 7.30 | 50 to 200 nM | > 80% | 50 to 200 nM | > 80%
CC(=O)c1c(C)c2cnc(Nc3ccc(N4CCN(C5CCN(C(=O)N6CCC(CN7CCN(c8ccc9c(c8)C(=O)N(C8CCC(=O)NC8=O)C9=O)CC7)CC6)CC5)CC4)cn3)nc2n(C2CCCC2)c1=O (stereo not shown) [Compound 86, 5-(4-((1-(4-(4-(6-((6-acetyl-8-cyclopentyl-5-methyl-7-oxo-7,8-dihydropyrido[2,3-d]pyrimidin-2-yl)amino)pyridin-3-yl)piperazin-1-yl)piperidine-1-carbonyl)piperidin-4-yl)methyl)piperazin-1-yl)-2-(2,6-dioxopiperidin-3-yl) isoindoline-1,3-dione] | 6.70 to 7.30 | 50 to 200 nM | > 60% | 50 to 200 nM | > 60%
Cc1nc2c(F)cc(-c3nc(Nc4ccc(CN5CCN(C6CN(c7ccc8c(c7)CN(C7CCC(=O)NC7=O)C8=O)C6)CC5)cn4)ncc3F)cc2n1C(C)C (stereo not shown) [Compound 97, 3-(5-(3-(4-((6-((5-fluoro-4-(4-fluoro-1-isopropyl-2-methyl-1H-benzo[d]imidazol-6-yl)pyrimidin-2-yl)amino)pyridin-3-yl)methyl)piperazin-1-yl)azetidin-1-yl)-1-oxoisoindolin-2-yl)piperidine-2,6-dione] | > 7.30 | < 50 nM | > 80% | < 50 nM | > 80%
